Data reported in US20060217340A1, “Methods and products for treating hypertension by modulation of TRPC3 channel activity” (University of Vermont and State Agricultural College, priority 2005, published 2006).

How the values were obtained:
[1] = system: cerebral artery SMCs; assay: Membrane potential recordings in pressurized cerebral arteries; format: cell-based, rat
Source text: (§1) Oligodeoxynucleotide Sequences and Reverse Permeabilization. TRPC6 sense and antisense oligodeoxynucleotides (ODN's) were designed as previously described (Welsh et al 2002 Circ Res 90, 248-250) and were as follows: sense, 5′-[…]-3′ (SEQ ID: 3) and 5′-GCACACGCAGCCTCTTCAC-3′ (SEQ ID: 4) antisense, 5′-[…]-3′ (SEQ ID: 5) and 5′-[…]-3′ (SEQ ID: 6). TRPC3 sense and antisense ODN's were designed based on the rat TRPC3 gene (Ohki et al 2000 J Biol Chem 275: 39055-39060) and are as follows: sense, 5′-[…]-3′ (SEQ ID: 7) and 5′-[…]-3′ (SEQ ID: 8); anti-sense, 5′-[…]-3′ (SEQ ID: 9) and 5′-[…]-3′ (SEQ ID: 10). The last five bases on the 5′ and 3′ end were phosphorothioated in order to limit ODN degradation. For some experiments fluoroscein-isothiocyanate was conjugated to the 5′ end to allow for histological assessment of cellular uptake of the ODNs. All ODNs were synthesized and HPLC purified commercially by Qiagen (Alameda, Calif., USA). Sense and antisense ODN's (2 μM) were introduced into the arterial SMs using a reversible permeabilization procedure (Lesh et al 1995 Circ Res 77,220-230)). The arterial segments were then organ cultured for 3 days in D-MEM/F-12 culture media with L-glutamine (2 mM), penicillin (50 units/ml) and streptomycin (50 μg/ml) prior to use.
(§2) Diameter and membrane potential recordings. Endothelial cell denuded artery segments were mounted on glass pipettes in an arteriograph chamber (Living Systems, Burlington, Vt., USA), pressurized to 20 mmHg (with no flow), and superfused with warm (37° C.), gassed (95% 02/5% CO2) physiological saline solution (PSS) containing (in mM): 119 NaCl, 4.7 KCl, 24 NaHCO3, 0.2 KH2PO4, […], 1.2 MgSO4, 1.6 CaCl2, and 10.6 glucose, pH 7.4. In experiments using Ca^2+-free PSS, CaCl2 was omitted and 3 mM EGTA and 30 μM diltiazem added. In experiments with diacylglycerol induction, 300 μM of the diacylglycerol analogue OAG (1-oleyol-2-acetyl-sn-glycerol) was added. The endothelium was removed as previously described (Sun et al 1993 Endothelium 1, 115-122). To verify endothelial cell removal the arteries were pressurized to 60 mmHg and allowed to develop myogenic tone prior to exposing the vessels to 1 μM UTP. Absence of a dilation or biphasic constrictor response to 1 μM UTP indicated successful endothelial cell removal (Marelli 2001 Am J Physiol Heart Cir Physiol 281, H1759-H1766; Miyagi et al 1996 Br J Pharmacol 118, 847-856). Arterial diameter or membrane potential (Vm) of sense and anti-sense treated arteries was measured in the absence (control) or presence of UTP (concentration range: 0.1 to 10 μM). Membrane potential was measured by inserting a sharp glass electrode (≈100 MΩ resistance) containing 0.5M KCl into the vessel wall. The criteria for successful vascular smooth muscle cell impalement were: (1) a sharp negative Vm deflection on entry; (2) a stable potential for at least 1 minute after entry; and (3) a sharp positive Vm deflection upon removal. Measurements were made using an electrometer (World Precision Instruments) and the data were recorded via computer using Axotape and Dataq software. Arterial diameter was measured using a video dimension analyzer (IonOptix Corporation; Milton, Mass.).

[2] = system: pressurized rat cerebral arteries; assay: Arterial diameter recordings (constriction) in pressurized cerebral arteries; format: cell-based
Source text: as §1
as §2, with “Arterial diameter or membrane potential (Vm) of sense and anti-sense treated arteries was measured in the absence (control) or presence of UTP (concentration range: 0.1 to 10 μM).” left out
Statistical analysis. Data are expressed as means±SEM, and n indicates the number of animals. Changes in arterial diameter were measured as a percent constriction calculated as follows: [formula]

[3] = system: pressurized rat cerebral arteries; assay: Arterial wall Ca2+ concentration measurement (FURA-2) in isolated arteries; format: cell-based; conditions: for effect on arterial wall Ca2+ or vessel diameter: absence of extracellular Ca2+
Method: Diameter and membrane potential recordings. […] In experiments using Ca^2+-free PSS, CaCl2 was omitted and 3 mM EGTA and 30 μM diltiazem added. In experiments with diacylglycerol induction, 300 μM of the diacylglycerol analogue OAG (1-oleyol-2-acetyl-sn-glycerol) was added. […] To verify endothelial cell removal the arteries were pressurized to 60 mmHg and allowed to develop myogenic tone prior to exposing the vessels to 1 μM UTP. […] Arterial diameter or membrane potential (Vm) of sense and anti-sense treated arteries was measured in the absence (control) or presence of UTP (concentration range: 0.1 to 10 μM). Membrane potential was measured by inserting a sharp glass electrode (≈100 MΩ resistance) containing 0.5M KCl into the vessel wall. […] Measurements were made using an electrometer (World Precision Instruments) and the data were recorded via computer using Axotape and Dataq software. Arterial diameter was measured using a video dimension analyzer (IonOptix Corporation; Milton, Mass.).
Ca^2+ concentration measurement in isolated arteries. Mounted arteries were equilibrated in 1.6 m M PSS for 40 minutes at 37° C. (pH 7.4) prior to loading the vascular smooth muscle cells with the Ca^2+-sensitive fluorescent dye, FURA-2. To load the cells, the 1.6 mM PSS was gradually replaced over 5 minutes with HEPES solution (25° C., pH 7.4). A total of 40 μL of a premixed 100 μM FURA-2-acetoxymethyl ester solution (100 μg FURA-2, 200 μL Pluronic acid, 800 μL DMSO) was added directly to the HEPES to give a final concentration of 2 μM FURA-2 AM. Loading continued in the dark at 25° C. (pH 7.4) for 40 minutes. At the end of the loading period, the HEPES was replaced with 1.6 mM PSS (35° C., pH 7.4) and 30 minutes was allowed for complete de-esterification of the FURA-2 AM before [Ca^2+]c measurements were made. FURA-2 fluorescence was measured using a photomultiplier system (IonOptix Corporation; Milton, Mass., USA) in which background-corrected ratios of the 510-nm emission from arteries alternatively excited at 340 and 380 nm were obtained at a sampling rate of 5 Hz.

[4] = Gd3+ given prior to re-introduction of extracellular Ca2+
[5] = OAG, Sprague Dawley, WKY and SHR rats
[6] = 30 μM UTP in PSS, first exposure
[7] = in the presence of UTP, steady state
[8] = 1 μM nimodipine, extracellular Ca2+ re-introduced in the presence of UTP
[9] = 2 μM thapsigargin, presence of UTP, n=3

5′-GGAGTTCAGACTGGCTAGGG-3′ (SEQ ID: 5) and 5′-GCACACGCAGCCTCCTTCAC-3′ (SEQ ID: 6) (DNA, backbone not given here; further chemistry not fully specified) [TRPC6 antisense, TRPC6 antisense oligodeoxynucleotides designed as previously described (Welsh et al 2002)]
UTP-induced depolarization, TRPC6 antisense- versus sense-treated group ([1]; exposure to UTP): no difference
magnitude of constriction ([2]; increasing concentrations of UTP): did not affect

[Gd+3] [Gd^3+]
effect on increase in arterial wall Ca2+ after Ca2+ return in the presence of UTP ([3]; 30 μM Gd3+, nimodipine present): reverses
arterial wall Ca2+ response to UTP [3, 4]: did not increase
effect on vasoconstriction after Ca2+ return in the presence of UTP ([2]; 30 μM Gd3+, nimodipine present): reverses
vasoconstriction in response to UTP [2, 4]: nor did vasoconstriction occur

CCCCCCCC/C=C\CCCCCCCC(=O)OC[C@H](CO)OC(C)=O [OAG, 1-oleoyl-2-acetyl-sn-glycerol]
increase in calcium concentration, arteries from SHR compared with normotensive rats [3, 5]: significantly larger increases
constriction of arteries from SHR compared with normotensive rats [2, 5]: significantly larger increases

O=c1ccn([C@@H]2O[C@H](COP(=O)(O)OP(=O)(O)OP(=O)(O)O)[C@@H](O)[C@H]2O)c(=O)[nH]1 [UTP, uridine triphosphate]
depolarization of arterial SMCs ([1]; micromolar concentrations of UTP): approximately 20 mV
initial peak increase in arterial wall Ca2+ ([3]; 30 μM UTP in PSS containing Ca2+, n=8): 291 ± 45 nM
steady state arterial wall [Ca2+] [3, 6]: 145 ± 10 nM
effect on arterial wall Ca2+ or vessel diameter [3]: neither UTP (FIG. 11 and FIG. 12) nor caffeine (FIG. 11A) affected
arterial wall [Ca2+] in Ca2+ free PSS ([3]; continued presence of UTP): decline below the resting level
arterial wall Ca2+ after returning extracellular Ca2+ [3, 7]: 139 ± 15 nM
sustained decrease in lumen diameter [2, 6]: 49±4%
vessel response in Ca2+ free PSS ([2]; continued presence of UTP): completely relax
decrease in lumen diameter (vasoconstriction) after returning extracellular Ca2+ [2, 7]: 48±5%

Cn1c(=O)c2c(ncn2C)n(C)c1=O [caffeine]
peak [Ca2+]c ([3]; 10 mM caffeine, PSS containing Ca2+): 227 ± 42 nM
effect on arterial wall Ca2+ or vessel diameter [3]: neither UTP (FIG. 11 and FIG. 12) nor caffeine (FIG. 11A) affected
% constriction ([2]; 10 mM caffeine, PSS containing Ca2+, transient): 31±6%

COCCOC(=O)C1=C(C)NC(C)=C(C(=O)OC(C)C)C1c1cccc([N+](=O)[O-])c1 (stereo not shown) [nimodipine]
UTP-induced increase in arterial wall Ca2+ [3, 8]: 94 ± 10 nM
share of extracellular Ca2+ influx entering through the L-type Ca2+ channel ([3]; re-admission of Ca2+ in the presence of UTP): about 30%
UTP-induced vasoconstriction [2, 8]: 29±3%

C/C=C(/C)C(=O)O[C@H]1C(C)=C2[C@H]([C@@H]1OC(=O)CCCCCCC)[C@@](C)(OC(C)=O)C[C@H](OC(=O)CCC)[C@@]1(O)[C@H]2OC(=O)[C@@]1(C)O [thapsigargin]
arterial wall Ca2+ when extracellular Ca2+ reintroduced [3, 9]: 116 ± 29 nM
diameter decrease when extracellular Ca2+ reintroduced [2, 9]: 39±6%
